Key:
[1] = Intrinsic dissolution profiles (modified Wood's apparatus, USP type II); assay type: physicochemical
Description: Objective: The objective of this study was to determine the dissolution characteristics of three different forms of commercially available Creatine including Creatine nitrate (CN), Creatine monohydrate (CM) and buffered Creatine (BC) under different temperature and pH. Methods: Intrinsic dissolution studies were carried out at 37° C. and room temperature in pH 2.5 and 7.4 buffer using modified Wood's apparatus. CN, CM and BC samples (˜0.5 g) were compressed in the dies with constant surface area of 1.21 cm2 using a Carver press at 2000 psi with a dwell time of 10 sec. These dies were placed in the USP dissolution apparatus (type II) containing 140 ml of dissolution media, with paddle speed of 50 rpm. Dissolution medium were collected at definite time intervals over a period of 3 hours for CN and 7 hours for both CM and BC and analyzed for Creatine using a validated HPLC method. Results: A plot of the amount of Creatine dissolved (mg)/surface area (cm2) versus time gives the slope (k′) which is directly proportional to the dissolution rate constant. The k′ (mg/cm2 hr) values for CN, CM and BC in pH 2.5 buffer at room temperature were 293.0±3.48, 59.1±2.06 and 71.1±0.59. At 37° C. these k′ (mg/cm2 hr) values were 327.3±2.66, 97.9±0.88 and 117.9±1.12, respectively. In pH 7.4 buffer, the k′ (mg/cm2 hr) values for CN, CM and BC were 278.9±14.6, 52.1±0.22 and 50.6±0.95 at room temperature and 319.5±14.3, 86.0±5.05 and 96.9±9.28 at 37° C., respectively. Conclusions: The dissolution rates of all three Creatine forms were higher at 37° C. as compared to at room temperature. […] However, the dissolution rate of CN was not affected by the pH of the dissolution media. […] Results of this study further predict a better bioavailability of CN as compared to CM and BC.

[2] = Chemical stability of Creatine forms in solution; assay type: physicochemical; conditions: for pH of samples, initial: start of storage; for degradation rate constant (k): ~10 mg/ml
Description: Methods: A known concentration (˜10 mg/ml) of CN, CM and BC were prepared in both pH 2.5 and pH 6.8 buffer and stored in stability chambers in screw-capped bottles at 37° C. and 40° C., respectively. Samples were collected at predetermined time points and analyzed for Creatine and degradation products if any, using a validated HPLC method. Changes in the pH, clarity and color of the samples were also determined. The order of degradation and rate constant were determined by graphical method. Results: The degradation rate constants (k) for CN, CM and BC at 37° C. in pH 2.5 buffer were 0.075±0.001, 0.119±0.011 and 0.108±0.002 (day-1) while that at 40° C. in pH 6.8 buffer were 0.115±0.001, 0.015±0.001 and 0.013±0.002 (day-1), respectively. The pH of CN samples at 40° C. in pH 6.8 buffer changed from 2.83±0.01 to 4.31±0.01 within a period of 12 days. The pH changes noticed at 37° C. in pH 2.5 buffer samples over the same period of time for CM, and BC were 3.08±0.01 to 4.12±0.01 and 3.11±0.01 and 4.16±0.01, respectively. […] No change in the color and the clarity was noticed over 12 days. Conclusions: All the Creatine samples followed first order degradation kinetics under both these experimental conditions. […] The major degradation product detected was Creatinine. For CN the increase in pH was higher at 40° C. in pH 6.8 buffer as compared to 37° C. in pH 2.5 buffer. However, opposite effect was noticed for both CM and BC.

[3] = pH 2.5 buffer, room temperature
[4] = pH 7.4 buffer, room temperature

Row | SMILES | k' (slope, proportional to intrinsic dissolution rate constant) ([1]; pH 2.5 buffer, 37° C.) [mg/cm2 hr] | k' (slope, proportional to intrinsic dissolution rate constant) [1, 3] [mg/cm2 hr] | k' (slope, proportional to intrinsic dissolution rate constant) ([1]; pH 7.4 buffer, 37° C.) [mg/cm2 hr] | k' (slope, proportional to intrinsic dissolution rate constant) [1, 4] [mg/cm2 hr] | pH of samples, after storage ([2]; 37° C. in pH 2.5 buffer, over 12 days) | pH of samples, initial ([2]; 37° C. in pH 2.5 buffer) | degradation rate constant (k) ([2]; 37° C. in pH 2.5 buffer) [day⁻¹] | pH of samples, initial ([2]; 40° C. in pH 6.8 buffer) | pH of samples, after storage ([2]; 40° C. in pH 6.8 buffer, within a period of 12 days) | degradation rate constant (k) ([2]; 40° C. in pH 6.8 buffer) [day⁻¹]
1 | CN(CC(=O)O)C(=N)N.O [CM, Creatine monohydrate, reference compound] | 97.9±0.88 | 59.1±2.06 | 86.0±5.05 | 52.1±0.22 | 4.12±0.01 | 3.08±0.01 |  |  |  | 
2 | CN(CC(=O)O)C(=N)N.O=[N+]([O-])O [CN, Creatine nitrate] | 327.3±2.66 | 293.0±3.48 | 319.5±14.3 | 278.9±14.6 |  |  | 0.075 ± 0.001 | 2.83±0.01 | 4.31±0.01 | 0.115 ± 0.001

— patent US10646508B1, “Method of safely administering nitrate dietary supplements and compositions” (ThermoLife International, LLC, priority 2007, dated 2020)
